Source: patent US7151191B2, “Compounds and compositions for delivering active agents” (Emisphere Technologies, Inc., priority 2000, dated 2006)

Row | SMILES | melting point [°C]
1 | COc1ccccc1C(=O)Nc1ccc(OCCC(=O)O)cc1 [Compound 9] | 154 to 158
2 | O=C(O)CCCOc1ccc(Cl)cc1NC(=O)c1ccccc1O [Compound 3] | 231 to 234
3 | O=C(O)CCCCOc1ccccc1NC(=O)c1ccccc1O [Compound 5] | 147 to 149
4 | O=C(O)CCCCCCCOc1ccc(Cl)cc1NC(=O)c1ccccc1O [Compound 1, 8-[(N-Salicyloyl-2-amino-4-chloro)phenoxyl]octanoic acid] | 152 to 153
5 | O=C(O)CCCCCCCOc1ccccc1NC(=O)c1ccccc1O [Compound 4] | 122 to 124
6 | O=C(O)CCOc1ccc(NC(=O)c2ccccc2O)cc1 [Compound 8, 3-(4-salicyloylamino)phenoxy propionic acid] | 165 to 167
7 | O=C(O)CCCCOc1ccc(Cl)cc1NC(=O)c1ccccc1O [Compound 2] | 166 to 169
8 | O=C(O)COc1ccc(CCCNC(=O)c2ccccc2O)cc1 [Compound 10] | 124 to 126.5
9 | COc1cccc(C(=O)Nc2ccc(OCCC(=O)O)cc2)c1OC [Compound 7] | 135 to 137
